Laboratory results: patent US8618158B2, “Therapeutic agents” (Cancer Research Technology Limited, priority 2008, dated 2013)
Read-outs that look alike come from different tables or passages of the source. Values belong to the compound of their own block, whether it stands above or below them.

Legend:
[1] = molecular target: MDM2-p53 interaction (Homo sapiens (Human), UniProt Q00987); assay: MDM2-p53 ELISA binding assay
Method: Streptavidin-coated 96-well plates are used to immobilise a biotin-tagged IP3 p53-derived peptide ([…]). This is a peptide analogue derived from the p53 binding site for MDM2 ([…]). […] Aliquots of MDM2 generated by in vitro translation are pre-incubated for 20 minutes at room temperature (i.e. 20-25° C.) with test compounds and controls, before transfer into the IP3-coated 96-well plates.
3-(4-Chloro-phenyl)-3-(4-hydroxy-3,5-dimethoxy-benzyloxy)-2-propyl-2,3-dihydro-isoindolin-1-one (NU8231) is currently included as a standard “lead compound” positive control. […] The AP peptide is included as a positive control for biological evaluation of the isoindolinones in the cell free binding assays.
All compounds are dissolved in DMSO and tested at a range of concentrations in the presence of a fixed final concentration of 5% DMSO.

[2] = tested on: SJSA-1 cell line; assay: Western blot of MDM2, p53 and p21 levels in SJSA-1 cells; type: cell-based; conditions: for levels of p53, p21 and MDM2 protein (FIG. 1): MDM2 amplified SJSA-1 cells, 1-20 μM
Method: The medium was then aspirated and the dishes were washed with 3 mL of cold PBS.
The samples were then loaded onto a precast 4-20% gradient polyacrylamide Tris-Glycine gels (15 wells, 1.5 mm thickness, Invitrogen Life Technologies), along with a pre-stained marker protein (SeeBlue, Invitrogen). The Gels were processed in Novex XCell (Invitrogen) at 180V and blotted onto a High Bond C membrane (Amersham Life Science) overnight at 30V.
The membrane was then blocked for one hour at room temperature in TBS-Tween containing 5% non-fat milk (TBST-M) followed by incubation with primary antibodies for MDM2 (MDM2-Ab 1, 1:500, Oncogene), p53 (p53-D07, 1:1000, Novacastra), p21 (p21 Ab1, 1:100, Oncogene) and Actin (Actin AC40, 1:1000, Sigma) in PBST-M for 1 hour.
The membrane was then washed three times in TBST (15 minutes per wash) and then incubated for an additional 1 hour with a anti mouse or a rabbit horseradish peroxidase (HRP) secondary antibody (Dako, 1:1000) in PBST-M followed by a final wash consisting of six washes with TBST at 5 minutes per wash.

[3] = tested on: p53-dependent transcriptional activity; assay: Luciferase based p53-dependent reporter gene assay; type: cell-based
[4] = tested on: wild-type p53 HCT116 cells; assay: Growth inhibition in p53 wild-type HCT116 cells; type: cell-based
[5] = tested on: p53−/− HCT116 cells; assay: Growth inhibition in p53−/− HCT116 cells; type: cell-based; conditions: comparison of p53 wt and p53−/− HCT116
[6] = tested on: SJSA-1 cell line; assay: Western blot of PARP and caspase-3 cleavage in SJSA-1 cells; type: cell-based; conditions: SJSA-1, after 48 hours of treatment, in comparison to nutlin-3
[7] = Table 1, mean ± SE of n = 3 unless indicated, read-out: ELISA IC50
[8] = Table 2, mean ± SE of n = 3 unless indicated, read-out: ELISA IC50
[9] = Table 5, read-out: MDM2-p53 ELISA IC50

Chain of MDM2-p53 interaction (Q00987 whole entry): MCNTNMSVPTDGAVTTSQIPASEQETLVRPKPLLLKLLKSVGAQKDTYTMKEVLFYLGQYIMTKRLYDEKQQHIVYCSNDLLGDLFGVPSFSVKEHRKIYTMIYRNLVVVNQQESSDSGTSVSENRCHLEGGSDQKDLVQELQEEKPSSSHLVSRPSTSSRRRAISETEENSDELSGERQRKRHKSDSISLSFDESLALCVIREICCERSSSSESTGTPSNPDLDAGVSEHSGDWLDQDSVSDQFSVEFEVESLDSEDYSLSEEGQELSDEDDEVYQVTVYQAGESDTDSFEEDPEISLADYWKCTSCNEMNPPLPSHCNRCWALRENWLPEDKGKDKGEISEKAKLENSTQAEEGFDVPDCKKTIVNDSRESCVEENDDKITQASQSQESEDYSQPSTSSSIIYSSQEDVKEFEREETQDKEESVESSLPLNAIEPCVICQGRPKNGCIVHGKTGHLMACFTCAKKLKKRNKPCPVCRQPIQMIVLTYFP

SMILES: O=C1c2ccccc2C(OCCCCO)(c2ccc(Cl)cc2)N1CCc1ccc([N+](=O)[O-])cc1 (stereo not drawn) [NU8362, 3-(4-Chlorophenyl)-3-(4-hydroxybutoxy)-2-[2-(4-nitrophenyl)ethyl]-2,3-dihydroisoindol-1-one]
IC50 [1, 7]: 3.2 ± 1 µM

SMILES: O=C1c2ccccc2C(OCCCCO)(c2ccc(Br)cc2)N1Cc1ccc([N+](=O)[O-])cc1 (stereo not drawn) [NU8390, 3-(4-bromophenyl)-3-(4-hydroxybutoxy)-2-(4-nitrobenzyl)isoindolin-1-one]
IC50 ([1]; Table 3, read-out: MDM2 IC50): 0.57 ± 0.059 µM

SMILES: O=C1c2ccccc2C(OCCCO)(c2ccc(Br)cc2)N1Cc1ccc([N+](=O)[O-])cc1 (stereo not drawn) [NU8392, 3-(4-bromophenyl)-3-(3-hydroxypropoxy)-2-(4-nitrobenzyl)isoindolin-1-one]
IC50 ([1]; Table 3, read-out: MDM2 IC50): 1.4 ± 0.16 µM

SMILES: CC(C)(CO)COC1(c2ccc(Cl)cc2)c2ccccc2C(=O)N1Cc1ccc([N+](=O)[O-])cc1 (stereo not drawn) [NU8353, 3-(4-Chloro-phenyl)-3-(3-hydroxy-2,2-dimethyl-propoxy)-2-(4-nitro-benzyl)-2,3-dihydro-isoindol-1-one]
IC50 [1, 8]: 0.395 ± 0.075 µM

SMILES: O=C1c2ccccc2C(OC[C@H]2CC[C@H](CO)CC2)(c2ccc(Cl)cc2)N1Cc1ccc([N+](=O)[O-])cc1 (stereo partly drawn) [NU8358, 3-(4-Chlorophenyl)-3-(4-hydroxymethylcyclohexylmethoxy)-2-(4-nitrobenzyl)-2,3-dihydroisoindol-1-one]
IC50 [1, 8]: 0.582 ± 0.075 µM

SMILES: O=C1c2ccccc2C(O[C@H]2C=C[C@@H](O)C2)(c2ccc(Cl)cc2)N1Cc1ccc([N+](=O)[O-])cc1 (stereo in doubt) [NU8297, 3-(4-Chlorophenyl)-3-(4-hydroxycyclopent-2-enyloxy)-2-(4-nitrobenzyl) isoindolin-1-one]
levels of p53, p21 and MDM2 protein (FIG. 1) [2]: did not show any evidence of activity
p53 dependent transcriptional activity (FIG. 3) [3]: activation of p53 dependent transcriptional activity

SMILES: O=C1c2ccccc2C(O)(c2ccc(Cl)cc2)N1Cc1cccc2ccccc12 (stereo not drawn) [NCL-00016046, 3-(4-chlorophenyl)-3-hydroxy-2-naphthalen-1-ylmethyl-2,3-dihydroisoindol-1-one]
IC50 [1, 9]: 96 µM

SMILES: O=C1c2ccccc2C(O)(c2ccc(F)cc2)N1Cc1ccc([N+](=O)[O-])cc1 (stereo not drawn) [NCL-00016657, 3-(4-fluorophenyl)-3-hydroxy-2-(4-nitrobenzyl)-2,3-dihydroisoindol-1-one]
IC50 [1, 9]: 9.46 µM

SMILES: COc1ccc(C2=NC(c3ccc(Cl)cc3)C(c3ccc(Cl)cc3)N2C(=O)N2CCNC(=O)C2)c(OC(C)C)c1 (racemic) [Nutlin-3, (±)-4-[4,5-bis-(4-Chlorophenyl)-2-(2-isopropoxy-4-methoxyphenyl)-4,5-dihydroimidazole-1-carbonyl]-piperazin-2-one]
MDM2, p53 and p21 levels by Western blotting (FIG. 12) ([2]; SJSA-1 cells, 1 to 20 μM): strong dose dependent increase in MDM2, p53 and p21 levels
growth inhibition (FIGS. 5 and 6) [4]: growth inhibitory
growth inhibition p53 wt versus p53−/− HCT116 (FIGS. 5 and 6) [5]: greater growth inhibition in the p53 wt HCT116 cell line than the p53−/− HCT116 cells

SMILES: O=C1c2ccccc2C(O[C@H]2CC[C@@H](O)C2)(c2ccc(Cl)cc2)N1Cc1ccc([N+](=O)[O-])cc1 (stereo partly drawn) [NU8296, 3-(4-chlorophenyl)-3-((1S,3R)-3-hydroxycyclopentyloxy)-2-(4-nitrobenzyl)isoindolin-1-one]
p53 dependent transcriptional activity (FIG. 3) [3]: activation of p53 dependent transcriptional activity
PARP and caspase-3 cleavage (FIG. 4) [6]: comparable to those observed with nutlin-3

SMILES: O=C1c2ccccc2C(O[C@H]2C=C[C@@H](O)C2)(c2ccc(Cl)cc2)N1Cc1ccccc1 (stereo in doubt) [NU8298, 2-Benzyl-3-(4-chlorophenyl)-3-(4-hydroxycyclopent-2-enyloxy) isoindolin-1-one]
IC50 [1, 7]: 2.3 ± 0.3 µM

Continued, in another order:

IC50 ([1]; Table 4, read-out: MDM2 IC50): 2.31 ± 0.56 µM
SMILES: O=C1c2ccccc2C(OCC2(CO)CC2)(c2ccc(Cl)cc2)N1Cc1ccc(Cl)cc1 (stereo not drawn) [NU8416, 2-(4-chlorobenzyl)-3-(4-chlorophenyl)-3-((1-(hydroxymethyl)cyclopropyl)methoxy)isoindolin-1-one]

IC50 [1, 7]: 1.4 ± 0.4 µM
SMILES: Cc1ccc(CN2C(=O)c3ccccc3C2(O[C@H]2C=C[C@@H](O)C2)c2ccc(Cl)cc2)cc1 (stereo in doubt) [NU8295, 3-(4-Chlorophenyl)-3-(4-hydroxycyclopent-2-enyloxy)-2-(4-methylbenzyl) isoindolin-1-one]
levels of p53, p21 and MDM2 protein (FIG. 1) [2]: induction of increased levels of p53, p21 and MDM2 protein

IC50 [1, 7]: 1.5 ± 0.3 µM
SMILES: O=C1c2ccccc2C(OC2C=C[C@@H](O)C2)(c2ccc(Cl)cc2)N1Cc1ccc(Cl)cc1 (stereo in doubt) [NU8293, 3-(4-Chlorophenyl)-3-(4-hydroxycyclopent-2-enyloxy)-2-(4-chlorobenzyl) isoindolin-1-one]
levels of p53, p21 and MDM2 protein (FIG. 1) [2]: induction of increased levels of p53, p21 and MDM2 protein
p53 dependent transcriptional activity (FIG. 3) [3]: activation of p53 dependent transcriptional activity

IC50 [1, 9]: 1.5 µM
SMILES: O=C1c2ccccc2C(OCC2(CO)CC2)(c2ccc(Cl)cc2)N1Cc1ccc(I)cc1 (stereo not drawn) [NCL-00014529, 3-(4-chlorophenyl)-3-(1-hydroxymethylcyclopropylmethoxy)-2-(4-iodobenzyl)-2,3-dihydroisoindol-1-one]

IC50 [1, 8]: 0.405 ± 0.01 µM
SMILES: O=C1c2ccccc2C(OCC=CCO)(c2ccc(Cl)cc2)N1Cc1ccc([N+](=O)[O-])cc1 (stereo not drawn) [NU8351, 3-(4-Chlorophenyl)-3-(4-hydroxybut-2-enyloxy)-2-(4-nitrobenzyl)-2,3-dihydroisoindol-1-one]

IC50 [1, 8]: 0.402 ± 0.009 µM
SMILES: O=C1c2ccccc2C(OC/C=C\CO)(c2ccc(Cl)cc2)N1Cc1ccc([N+](=O)[O-])cc1 (stereo not drawn) [NU8350, 3-(4-Chlorophenyl)-3-(4-hydroxybut-2-enyloxy)-2-(4-nitrobenzyl)-2,3-dihydroisoindol-1-one]
